# Data taken from patent US7744933B2, “Use of unsaponifiable components of vegetable oils for preparing a cosmetic and related treatments” (Laboratories Expanscience, priority 1998, dated 2010).
# Tested on: PAI-1
# Test: 35S-methionine radiolabelling for the synthesis of PAI-1 in chondrocytes (SDS-PAGE, fluorography)
# Assay type: cell-based, bovine
# Conditions: 24 hours; Piasclédine 300 10 μg/ml or TGF-β1 1 ng/ml; cell+matrix fraction
# Experimental: The chondrocytes are isolated from calf cartilages as described in the article by Benya et al. (“The progeny of articular chondrocytes synthesize collagen types I and II trimer, but not type II. Verification by cyanogen bromide peptide analysis”, Biochemistry 1977; 16: 865-872). Primary cultures of chondrocytes are used in order to minimize the phenotypic changes. The cultures are plated at the rate of 6.0×10^6 cells per 175-cm^2 dish (for the extraction of RNA), at the rate of 5.0×10^6 cells per well in 6-well plates (9.6 cm^2) (for the labelling of PAI-1) and at the rate of 1.2×10^6 cells in 100-mm Petri dishes (transfection). […]
# The confluent cultures in 6-well plates (9.6 cm^2) are labelled with [^35S]methionine (40 μCi/nil, Arnersham, France) in the presence of Piasclédine 300® (10 μg/nil) and TGF-β1 (1 ng/ml) for 24 hours. […] The band at 46 kD is determined to correspond to PAI-1 by previous immunoblotting using a rabbit polyclonal anti-PAI-1 antibody (Dako, Copenhagen, Denmark) as described in the article by Laiho M et al., reference cited above.
# It was observed that the medium contained only minor quantities of newly-synthesized PAI-1. […]
substance,measurement,value
"TGF-β1: transforming growth factor β1 protein, 1 ng/ml, marketed by R & D Systems, used as positive control",PAI-1 fraction (synthesis of PAI-1) versus control cultures,significantly greater
